Source: ChEMBL document CHEMBL4706583, “2-Anilinoquinoline based arylamides as broad spectrum anticancer agents with B-RAF/C-RAF kinase inhibitory effects: Design, synthesis, in vitro cell-based and oncogenic kinase assessments” (Eur J Med Chem, 2020)

Key:
HCT-116 [1] = assay: Cell cycle arrest in human HCT-116 cells assessed as accumulation at sub-G1 phase at 1.25 uM measured after 48 hrs by propidium iodide staining based flow cytometry (reference value: 17%); format: functional
HCT-116 [2] = assay: Cell cycle arrest in human HCT-116 cells assessed as accumulation at G1/G0 phase at 5 uM measured after 48 hrs by propidium iodide staining based flow cytometry (reference value: 52.2%); format: functional
HCT-116 [3] = assay: Cell cycle arrest in human HCT-116 cells assessed as accumulation at S phase at 5 uM measured after 48 hrs by propidium iodide staining based flow cytometry (reference value: 10.4%); format: functional
[4] = system: Serine/threonine-protein kinase B-raf (Homo sapiens), P15056 [V600E]; assay: Inhibition of human BRAF V600E mutant at 10 uM using MEK1 (K97R) as substrate in presence of [gamma-33P]ATP by scintillation counting method relative to control
Serine/threonine-protein kinase B-raf (Homo sapiens), P15056 [V600E], sequence (P15056 whole entry V600E, the tested form may be a part): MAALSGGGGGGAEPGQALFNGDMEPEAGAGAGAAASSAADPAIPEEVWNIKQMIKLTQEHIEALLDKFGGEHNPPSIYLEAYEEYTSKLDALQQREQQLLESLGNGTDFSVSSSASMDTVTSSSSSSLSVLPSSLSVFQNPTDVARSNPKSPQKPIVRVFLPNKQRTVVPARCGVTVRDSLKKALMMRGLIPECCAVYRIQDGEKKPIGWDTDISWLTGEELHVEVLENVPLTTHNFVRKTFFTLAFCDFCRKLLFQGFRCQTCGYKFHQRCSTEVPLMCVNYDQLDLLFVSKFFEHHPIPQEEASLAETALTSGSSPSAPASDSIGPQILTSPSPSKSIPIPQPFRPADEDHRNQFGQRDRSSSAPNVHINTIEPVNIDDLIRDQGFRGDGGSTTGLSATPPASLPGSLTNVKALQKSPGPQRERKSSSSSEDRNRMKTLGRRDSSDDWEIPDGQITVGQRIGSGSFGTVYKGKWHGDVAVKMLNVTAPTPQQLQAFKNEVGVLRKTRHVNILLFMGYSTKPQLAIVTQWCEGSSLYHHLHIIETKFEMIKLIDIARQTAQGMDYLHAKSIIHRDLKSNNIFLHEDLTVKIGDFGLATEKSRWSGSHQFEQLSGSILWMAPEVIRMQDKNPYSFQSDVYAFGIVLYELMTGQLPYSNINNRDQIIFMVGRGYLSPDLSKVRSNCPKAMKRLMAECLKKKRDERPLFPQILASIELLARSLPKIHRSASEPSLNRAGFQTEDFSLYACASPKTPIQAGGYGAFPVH

[5] = biological target: Epithelial discoidin domain-containing receptor 1 (Homo sapiens, UniProt Q08345); assay: Inhibition of human DDR1 at 10 uM using KKSRGDYMTMQIG as substrate in presence of [gamma-33P]ATP by scintillation counting method relative to control
Epithelial discoidin domain-containing receptor 1, sequence (Q08345 whole entry, the tested form may be a part): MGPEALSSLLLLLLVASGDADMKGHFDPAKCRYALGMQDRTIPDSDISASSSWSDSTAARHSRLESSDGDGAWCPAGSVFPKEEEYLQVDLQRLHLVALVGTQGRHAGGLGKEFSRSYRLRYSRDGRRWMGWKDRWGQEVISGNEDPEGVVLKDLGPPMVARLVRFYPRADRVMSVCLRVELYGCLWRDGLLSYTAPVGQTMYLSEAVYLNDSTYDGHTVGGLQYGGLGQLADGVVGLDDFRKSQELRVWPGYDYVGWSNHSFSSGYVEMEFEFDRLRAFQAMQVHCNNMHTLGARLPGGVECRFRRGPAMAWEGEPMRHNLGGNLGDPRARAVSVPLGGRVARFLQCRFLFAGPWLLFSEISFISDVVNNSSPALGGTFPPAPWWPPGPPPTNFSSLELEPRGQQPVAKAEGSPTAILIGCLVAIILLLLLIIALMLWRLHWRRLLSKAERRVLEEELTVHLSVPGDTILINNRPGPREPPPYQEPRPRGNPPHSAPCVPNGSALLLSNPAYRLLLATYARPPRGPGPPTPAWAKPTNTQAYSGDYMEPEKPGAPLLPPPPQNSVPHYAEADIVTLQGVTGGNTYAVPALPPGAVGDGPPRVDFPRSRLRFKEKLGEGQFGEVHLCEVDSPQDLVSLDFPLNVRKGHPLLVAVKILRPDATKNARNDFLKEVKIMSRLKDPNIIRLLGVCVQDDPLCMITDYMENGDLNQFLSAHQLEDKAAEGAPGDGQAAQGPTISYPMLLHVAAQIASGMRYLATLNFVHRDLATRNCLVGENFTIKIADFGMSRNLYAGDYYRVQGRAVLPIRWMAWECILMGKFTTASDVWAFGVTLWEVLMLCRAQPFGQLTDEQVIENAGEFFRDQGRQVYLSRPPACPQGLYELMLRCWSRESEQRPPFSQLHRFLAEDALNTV

[6] = biological target: RAF proto-oncogene serine/threonine-protein kinase (Homo sapiens, UniProt P04049); assay: Inhibition of human CRAF at 10 uM using MEK1 (K97R) as substrate in presence of [gamma-33P]ATP by scintillation counting method relative to control
RAF proto-oncogene serine/threonine-protein kinase, sequence (P04049 whole entry, the tested form may be a part): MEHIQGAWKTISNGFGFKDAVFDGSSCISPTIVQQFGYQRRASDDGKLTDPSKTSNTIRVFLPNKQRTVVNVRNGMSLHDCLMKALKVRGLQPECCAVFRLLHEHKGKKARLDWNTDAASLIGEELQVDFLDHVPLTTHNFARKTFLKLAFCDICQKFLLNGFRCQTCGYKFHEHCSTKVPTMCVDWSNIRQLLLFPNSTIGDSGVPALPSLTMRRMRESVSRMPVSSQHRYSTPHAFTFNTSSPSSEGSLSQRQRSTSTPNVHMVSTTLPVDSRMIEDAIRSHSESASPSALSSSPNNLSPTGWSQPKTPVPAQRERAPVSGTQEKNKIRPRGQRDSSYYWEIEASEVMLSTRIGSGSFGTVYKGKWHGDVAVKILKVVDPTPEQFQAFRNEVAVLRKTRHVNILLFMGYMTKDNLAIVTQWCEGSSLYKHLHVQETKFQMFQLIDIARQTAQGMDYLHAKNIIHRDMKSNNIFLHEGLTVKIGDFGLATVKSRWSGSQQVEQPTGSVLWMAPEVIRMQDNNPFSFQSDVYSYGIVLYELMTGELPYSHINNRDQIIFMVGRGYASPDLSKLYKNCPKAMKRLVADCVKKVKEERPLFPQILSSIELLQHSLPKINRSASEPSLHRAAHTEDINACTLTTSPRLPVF

[7] = biological target: Discoidin domain-containing receptor 2 (Homo sapiens) (UniProt Q16832); assay: Inhibition of human DDR2 at 10 uM using KKSRGDYMTMQIG as substrate in presence of [gamma-33P]ATP by scintillation counting method relative to control
Discoidin domain-containing receptor 2 (Homo sapiens), sequence (Q16832 whole entry, the tested form may be a part): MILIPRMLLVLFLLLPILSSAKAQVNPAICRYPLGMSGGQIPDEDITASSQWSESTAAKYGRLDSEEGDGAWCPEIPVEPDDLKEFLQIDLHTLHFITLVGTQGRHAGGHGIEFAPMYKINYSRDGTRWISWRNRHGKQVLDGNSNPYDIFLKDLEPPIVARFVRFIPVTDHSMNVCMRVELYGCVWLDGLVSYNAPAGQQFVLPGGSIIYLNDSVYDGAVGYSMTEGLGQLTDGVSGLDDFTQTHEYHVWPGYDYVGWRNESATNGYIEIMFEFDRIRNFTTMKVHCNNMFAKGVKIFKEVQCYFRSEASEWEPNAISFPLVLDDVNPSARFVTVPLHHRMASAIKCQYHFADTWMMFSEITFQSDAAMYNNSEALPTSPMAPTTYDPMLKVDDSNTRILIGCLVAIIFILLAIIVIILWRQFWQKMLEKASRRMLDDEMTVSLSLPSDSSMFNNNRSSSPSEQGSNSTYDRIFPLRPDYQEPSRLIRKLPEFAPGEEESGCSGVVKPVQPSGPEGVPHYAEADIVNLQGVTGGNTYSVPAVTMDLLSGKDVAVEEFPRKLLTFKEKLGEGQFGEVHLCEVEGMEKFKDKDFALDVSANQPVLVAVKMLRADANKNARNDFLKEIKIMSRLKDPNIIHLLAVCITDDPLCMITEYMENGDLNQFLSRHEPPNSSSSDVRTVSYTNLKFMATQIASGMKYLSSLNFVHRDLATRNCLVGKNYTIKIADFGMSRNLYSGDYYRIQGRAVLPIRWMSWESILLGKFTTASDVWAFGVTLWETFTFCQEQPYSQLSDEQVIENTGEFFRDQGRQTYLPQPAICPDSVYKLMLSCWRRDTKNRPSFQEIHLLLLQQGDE

[8] = biological target: Macrophage colony-stimulating factor 1 receptor (Homo sapiens) (UniProt P07333); assay: Inhibition of human FMS at 10 uM using poly[Glu:Tyr] (4:1) as substrate in presence of [gamma-33P]ATP by scintillation counting method relative to control
Macrophage colony-stimulating factor 1 receptor (Homo sapiens), sequence (P07333 whole entry): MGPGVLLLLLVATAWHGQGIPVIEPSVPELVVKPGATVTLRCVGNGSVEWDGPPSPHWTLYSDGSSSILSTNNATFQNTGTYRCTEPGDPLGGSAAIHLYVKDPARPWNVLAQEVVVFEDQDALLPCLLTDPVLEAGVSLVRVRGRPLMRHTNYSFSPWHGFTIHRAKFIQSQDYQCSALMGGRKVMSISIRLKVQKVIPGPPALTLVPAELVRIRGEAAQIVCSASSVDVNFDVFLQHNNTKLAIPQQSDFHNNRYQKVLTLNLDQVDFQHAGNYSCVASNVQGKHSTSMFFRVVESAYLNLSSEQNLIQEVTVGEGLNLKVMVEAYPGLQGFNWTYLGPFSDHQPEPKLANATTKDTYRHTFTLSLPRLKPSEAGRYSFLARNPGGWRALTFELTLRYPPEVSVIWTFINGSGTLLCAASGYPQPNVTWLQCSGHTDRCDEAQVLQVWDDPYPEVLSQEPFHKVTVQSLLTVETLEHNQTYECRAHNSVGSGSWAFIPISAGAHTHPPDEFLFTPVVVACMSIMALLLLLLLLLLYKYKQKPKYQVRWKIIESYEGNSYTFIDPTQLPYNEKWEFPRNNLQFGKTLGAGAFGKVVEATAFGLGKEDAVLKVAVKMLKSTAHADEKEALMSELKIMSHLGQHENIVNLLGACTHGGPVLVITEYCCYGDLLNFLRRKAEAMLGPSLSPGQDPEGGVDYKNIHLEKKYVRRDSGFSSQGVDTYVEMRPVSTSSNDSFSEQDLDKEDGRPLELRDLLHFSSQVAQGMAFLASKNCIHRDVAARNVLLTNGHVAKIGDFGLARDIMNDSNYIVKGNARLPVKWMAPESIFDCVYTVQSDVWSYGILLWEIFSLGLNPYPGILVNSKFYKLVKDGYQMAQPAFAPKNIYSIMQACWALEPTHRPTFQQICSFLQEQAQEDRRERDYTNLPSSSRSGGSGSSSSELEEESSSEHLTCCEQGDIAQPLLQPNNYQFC

HCT-116 [9] = assay: Cell cycle arrest in human HCT-116 cells assessed as accumulation at sub-G1 phase at 5 uM measured after 24 hrs by propidium iodide staining based flow cytometry (reference value: 8.7%); format: functional
HCT-116 [10] = assay: Cell cycle arrest in human HCT-116 cells assessed as accumulation at G1/G0 phase at 1.25 uM measured after 24 hrs by propidium iodide staining based flow cytometry (reference value: 65%); format: functional
HCT-116 [11] = assay: Cell cycle arrest in human HCT-116 cells assessed as accumulation at G1/G0 phase at 2.5 uM measured after 24 hrs by propidium iodide staining based flow cytometry (reference value: 65%); format: functional

Structure (SMILES)	Activity (HCT-116 [1])	Activity (HCT-116 [2])	Activity (HCT-116 [3])	inhibition [4]	inhibition [5]	inhibition [6]	inhibition [7]	inhibition [8]	Activity (HCT-116 [9])	Activity (HCT-116 [10])	Activity (HCT-116 [11])
CCN1CCN(c2cc(C(=O)Nc3cccc(Nc4ccc5c(OC)cccc5n4)c3)cc(C(F)(F)F)c2)CC1	21%	64.1%	7.4%	94.4%	94.5%	94.4%	67.5%	60.7%	–	–	–
COc1cccc2nc(Nc3cccc(NC(=O)c4ccc(N5CCN(C)CC5)c(C(F)(F)F)c4)c3)ccc12	–	–	–	–	–	–	–	–	9.1%	66.6%	69.7%
